Assay results reported in PubChem BioAssay AID2060904 (Molecular Pharmacology Branch, DTP, NCI, 2025).

Tested on: 349418-098-R-PDC complex spheroid viability
Assay: Anticancer human tumor 349418-098-R-PDC patient-derived lung adenocarcinoma cell line growth inhibition [RAS]
Conditions: for IC50: curve of first compound; for viability, T/C: stronger effect = lower value
Summary of the method: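 Multi-cell-type spheroids: tumor cells plus HUVEC endothelial cells and mesenchymal stem cells. RAS-pathway inhibitors were combined with targeted agents, each dosed in half-log steps down from clinical Cmax, or from 10 microM when Cmax was unknown.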

[1] = second compound 0.0316 µM, first compound 0.0316 µM
[2] = second compound 0.0316 µM, first compound 0.1 µM
[3] = second compound 0.0316 µM, first compound 0.316 µM
[4] = second compound 0.0316 µM, first compound 1 µM
[5] = second compound 0.1 µM, first compound 0.0316 µM
[6] = second compound 0.1 µM, first compound 0.1 µM
[7] = second compound 0.1 µM, first compound 0.316 µM
[8] = second compound 0.1 µM, first compound 1 µM
[9] = second compound 0.316 µM, first compound 0.0316 µM
[10] = second compound 0.316 µM, first compound 0.1 µM
[11] = second compound 0.316 µM, first compound 0.316 µM
[12] = second compound 0.316 µM, first compound 1 µM
[13] = second compound 1 µM, first compound 0.0316 µM
[14] = second compound 1 µM, first compound 0.1 µM
[15] = second compound 1 µM, first compound 0.316 µM
[16] = second compound 1 µM, first compound 1 µM
[17] = second compound 3.16 µM, first compound 0.0316 µM
[18] = second compound 3.16 µM, first compound 0.1 µM
[19] = second compound 3.16 µM, first compound 0.316 µM
[20] = second compound 3.16 µM, first compound 1 µM
[21] = second compound 10 µM, first compound 0.0316 µM
[22] = second compound 10 µM, first compound 0.1 µM
[23] = second compound 10 µM, first compound 0.316 µM
[24] = second compound 10 µM, first compound 1 µM
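Also: spheroids exposed to compound for seven days before viability readout.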

## C[C@@H](NC(=O)c1ncnc(N)c1Cl)c1ncc(C(=O)Nc2cc(C(F)(F)F)c(Cl)cn2)s1 + C#Cc1c(F)ccc2cc(O)cc(-c3ncc4c(N5CC6CCC(C5)N6)nc(OCC56CCCN5CC(F)C6)nc4c3F)c12
Second compound 0.0316 µM
  IC50: 2.44 µM
Second compound 0.1 µM
  IC50: 2.71 µM
Second compound 0.316 µM
  IC50: 2.21 µM
Second compound 1 µM
  IC50: 2.69 µM
Second compound 3.16 µM
  IC50: 2.94 µM
Second compound 10 µM
  IC50: 0.398 µM
[1]
  viability, T/C: 83.8%
[2]
  viability, T/C: 116%
[3]
  viability, T/C: 89%
[4]
  viability, T/C: 67.8%
Second compound 0.0316 µM, first compound 3.16 µM
  viability, T/C: 47.2%
Second compound 0.0316 µM, first compound 10 µM
  viability, T/C: 35.4%
[5]
  viability, T/C: 101%
[6]
  viability, T/C: 118%
[7]
  viability, T/C: 95.9%
[8]
  viability, T/C: 73.2%
Second compound 0.1 µM, first compound 3.16 µM
  viability, T/C: 47.4%
Second compound 0.1 µM, first compound 10 µM
  viability, T/C: 36.6%
[9]
  viability, T/C: 110%
[10]
  viability, T/C: 119%
[11]
  viability, T/C: 76.4%
[12]
  viability, T/C: 62.4%
Second compound 0.316 µM, first compound 3.16 µM
  viability, T/C: 52%
Second compound 0.316 µM, first compound 10 µM
  viability, T/C: 32.8%
[13]
  viability, T/C: 90.7%
[14]
  viability, T/C: 93.8%
[15]
  viability, T/C: 107%
[16]
  viability, T/C: 76.7%
Second compound 1 µM, first compound 3.16 µM
  viability, T/C: 47.6%
Second compound 1 µM, first compound 10 µM
  viability, T/C: 34.5%
[17]
  viability, T/C: 86.6%
[18]
  viability, T/C: 92.8%
[19]
  viability, T/C: 87%
[20]
  viability, T/C: 75.2%
Second compound 3.16 µM, first compound 3.16 µM
  viability, T/C: 48.5%
Second compound 3.16 µM, first compound 10 µM
  viability, T/C: 28.4%
[21]
  viability, T/C: 76.5%
[22]
  viability, T/C: 61.5%
[23]
  viability, T/C: 57.5%
[24]
  viability, T/C: 33.2%
Second compound 10 µM, first compound 3.16 µM
  viability, T/C: 30.2%
Second compound 10 µM, first compound 10 µM
  viability, T/C: 8.17%

## O=C(c1ccc(F)c(F)c1Nc1ccc(I)cc1F)N1CC(O)([C@@H]2CCCCN2)C1 + C#Cc1c(F)ccc2cc(O)cc(-c3ncc4c(N5CC6CCC(C5)N6)nc(OCC56CCCN5CC(F)C6)nc4c3F)c12
Second compound 0.0316 µM
  IC50: < 0.00316 µM
Second compound 0.1 µM
  IC50: < 0.00316 µM
Second compound 0.316 µM
  IC50: < 0.00316 µM
Second compound 1 µM
  IC50: < 0.00316 µM
Second compound 3.16 µM
  IC50: < 0.00316 µM
Second compound 10 µM
  IC50: < 0.00316 µM
Second compound 0.0316 µM, first compound 0.00316 µM
  viability, T/C: 47.9%
Second compound 0.0316 µM, first compound 0.01 µM
  viability, T/C: 37.5%
[1]
  viability, T/C: 36.9%
[2]
  viability, T/C: 15.6%
[3]
  viability, T/C: 7.05%
[4]
  viability, T/C: 5.82%
Second compound 0.1 µM, first compound 0.00316 µM
  viability, T/C: 44.8%
Second compound 0.1 µM, first compound 0.01 µM
  viability, T/C: 39.8%
[5]
  viability, T/C: 29.3%
[6]
  viability, T/C: 14.2%
[7]
  viability, T/C: 7.41%
[8]
  viability, T/C: 4.83%
Second compound 0.316 µM, first compound 0.00316 µM
  viability, T/C: 46%
Second compound 0.316 µM, first compound 0.01 µM
  viability, T/C: 32.6%
[9]
  viability, T/C: 24.1%
[10]
  viability, T/C: 13.3%
[11]
  viability, T/C: 5.32%
[12]
  viability, T/C: 5.62%
Second compound 1 µM, first compound 0.00316 µM
  viability, T/C: 38.6%
Second compound 1 µM, first compound 0.01 µM
  viability, T/C: 31.1%
[13]
  viability, T/C: 21.9%
[14]
  viability, T/C: 10.9%
[15]
  viability, T/C: 5.57%
[16]
  viability, T/C: 4.89%
Second compound 3.16 µM, first compound 0.00316 µM
  viability, T/C: 36.8%
Second compound 3.16 µM, first compound 0.01 µM
  viability, T/C: 22.8%
[17]
  viability, T/C: 16%
[18]
  viability, T/C: 8.92%
[19]
  viability, T/C: 6.05%
[20]
  viability, T/C: 4.36%
Second compound 10 µM, first compound 0.00316 µM
  viability, T/C: 16.8%
Second compound 10 µM, first compound 0.01 µM
  viability, T/C: 7.65%
[21]
  viability, T/C: 3.23%
[22]
  viability, T/C: 4.71%
[23]
  viability, T/C: 2.14%
[24]
  viability, T/C: 0.87%
